According to patent publication EP1191024A1, “Thiadiazines and their use as inhibitors of metalloproteinases” (Tschesche, Harald, priority 2000, dated 2002):
Counter-ions that a name gives are not always drawn.

biological target: T1, cdMMP-8 (Homo sapiens, UniProt P22894); experiment: MMP microfluorometric profiling assay (fluorogenic Mca-peptide substrate); format: biochemical; details: not given
T1 construct: recombinant catalytic domain of human neutrophile Collagenase (cdMMP-8^Met80); made in house; host or cells: E. coli
Procedure: The tested MMP enzymes were prepared more specifically in the laboratories of the applicants, with the exception of MMP-1. MMP-1 from human rheumatoid synovial fibroblasts was purchased from Calbiochem-Novabiochem Corporation, LaJolla. Preparation of the recombinant catalytic domain of human Gelatinase A (cdMMP-2): The catalytic domain of Pro-Gelatinase A was prepared using an E. coli expression system according to the method described by Kröger et al^[19]. The proenzyme was activated with 0.5 mM APMA at 37°C prior to use in the assay. […] Preparation of PMNL-Gelatinase (MMP-9): Latent PMNL-pro-Gelatinase was prepared from human plasma buffy coat as described by Tschesche et al^[21]. PMNL-pro-Gelatinase was activated prior to use by incubation with Trypsin at 37°C for 10 min. Inactivation of Trypsin was accomplished with TKI. […] The overexpressed protein was isolated as inclusion bodies and the renatured protein was purified by affinity chromatography with a hydroxamate inhibitor coupled column as described^[22]. Preparation of the recombinant catalytic domain of human Collagenase-3 (cdMMP-13): Human pro-cdMMP-13 was prepared using an E. coli expression system according to the method described^[23]. The isolated pro-cdMMP-13 was activated prior to use by incubation with 5 mM HgCl2 for 2 h at 37°C.
The enzymatic activity was measured using a modified version of a resonance energy transfer fluorogenic assay as described^[26]. […] The fluorescent MCA-group is quenched by resonance energy transfer to the 2,4-dinitrophenyl group. Matrix metalloproteinases cleave this substrate at the Gly-Leu bond. Cleavage results in the loss of energy transfer and a large increase in fluorescence of the MCA group. This substrate is commercially available from Bachem, Switzerland.
Enzyme inhibition assays were carried out in MRB which consisted of 50 mM HEPES/NaOH, pH 7.0, 10 mM CaCl2 and 0,02% (w/v) PEG 8000 at 25°C. MMP microfluorometric profiling assay was done in white U-bottomed 96-well plates (Microfluor 1 White, Dynex, USA) with a final substrate concentration of 6 µM MCA-peptide, approximately 0.3 to 5 nM MMP with variable inhibitor concentrations and 2% DMSO vehicle. From a 1.5 mM stock (100% DMSO) the inhibitors were serially diluted with MRB to 15, 10, 5, 3, 1, 0.6, 0.3, 0.1, 0.05, 0.01 and 0.005 µM final assay concentration. Column 1, rows A through H, contained only DMSO for the "enzyme-only" wells in the assay. […] Each measurement was done in triplicate to ensure statistically significant results. The experiment was further controlled for background fluorescence of the substrate, for fluorescence of fully cleaved substrate and for fluorescence quenching or augmentation from solutions containing the test compounds.
Datapoints from eight different MMPs generated on the SpectraFluor Plus were directly visualized on a master Excel spreadsheet. The response of inhibition was determinated for each inhibitor concentration by comparing the amount of hydrolysis (fluorescence units generated over 30 minutes of hydrolysis) of wells containing compound with the "enzyme-only" wells in column 1. With the program GraFit (Erithacus Software Limited) a 4 parameter logistic fit to the dose-response data was used to calculate IC50 values for each compound.

T1 sequence (P22894 100-262 limits assumed): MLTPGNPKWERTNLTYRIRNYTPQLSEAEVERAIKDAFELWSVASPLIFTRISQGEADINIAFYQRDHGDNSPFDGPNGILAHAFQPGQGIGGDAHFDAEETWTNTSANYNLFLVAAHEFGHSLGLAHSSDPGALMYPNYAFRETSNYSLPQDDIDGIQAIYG

SMILES | IC50
C[C@H](NS(=O)(=O)c1ccccc1)C(=O)NC1=NN=C(c2ccc(C(F)(F)F)cc2)CS1 [Example 4, (2S)-2-[(Phenylsulfonyl)amino]-N-{5-[4-(trifluormethyl)phenyl]-6H-1,3,4-thiadiazin-2-yl}propanamide] | 515 nM
C[C@H](NS(=O)(=O)N1CCOCC1)C(=O)NC1=NN=C(c2ccc(Cl)cc2)CS1 [Example 28, (2S)-N-[5-(4-Chlorophenyl)-6H-1,3,4-thiadiazin-2yl-]-2-[(4-morpholinylsulfonyl)amino]propanamide] | 296 nM

same assay, conditions: cdMMP-8, @ 15 (µM)

percent inhibition | SMILES
56%^a)@ 15 | O=C(CC1NC(=O)NC1=O)NC1=NN=C(c2ccc(C3CCCCC3)cc2)CS1 (stereo not drawn) [Example 25, N-[5-(4-Cyclohexylphenyl)-6H-1,3,4-thiadiazin-2-yl]-2-(2,5-dioxo-4-imidazolidinyl)acetamide]

same assay, conditions: read-out: cdMMP-8 IC50

SMILES | IC50
C[C@H](NS(=O)(=O)c1cccnc1)C(=O)NC1=NN=C(c2ccc(Cl)cc2)CS1 [Example 29, (2S)-N-[5-(4-Chlorophenyl)-6H-1,3,4-thiadiazin-2-yl]-2-[(3-pyridylsulfonyl)-amino]propanamide] | 377 nM
O=C1C[C@@H](C(=O)NC2=NN=C(c3ccc(Cl)cc3)CS2)NC(=O)N1 [Example 30, (4S)-N-[5-(4-Chlorophenyl)-6H-1,3,4-thiadiazin-2-yl]-2,6-dioxohexahydro-4-pyrimidinecarboxamide] | 692 nM
COc1ccc(C2=NN=C(NC(=O)[C@H](C)NS(=O)(=O)c3ccccc3)SC2)cc1 [Example 12, (2S)-N-[5-(4-Methoxyphenyl)-6H-1,3,4-thiadiazin-2-yl]-2-[(phenylsulfonyl)-amino]propanamide] | 354 nM
O=C(CC1NC(=O)NC1=O)NC1=NN=C(c2ccc(Br)cc2)CS1 (stereo not drawn) [Example 24, N-[5-(4-Bromophenyl)-6H-1,3,4-thiadiazin-2-yl]-2-(2,5-dioxo-4-imidazolidinyl)-acetamide] | 578 nM
CC(C)[C@H](NS(=O)(=O)c1ccccc1)C(=O)NC1=NN=C(c2ccc(Cl)cc2)CS1 [Example 22, (2S)-N-[5-(4-Chlorophenyl)-6H-1,3,4-thiadiazin-2-yl]-3-methyl-2-[(phenylsulfonyl)amino]butanamide] | 1580 nM
C[C@H](NS(=O)(=O)c1ccccc1)C(=O)NC1=NN=C(c2ccc(Cl)s2)CS1 [Example 10, (2S)-N-[5-(5-Chloro-2-thienyl)-6H-1,3,4-thiadiazin-2-yl]-2-[(phenylsulfonyl)-amino]propanamide] | 371 nM
C[C@H](NS(=O)(=O)c1ccccc1)C(=O)NC1=NN=C(c2ccc(C#N)cc2)CS1 [Example 3, (2S)-N-[5-(4-Cyanophenyl)-6H-1,3,4-thiadiazin-2-yl]-2-[(phenylsulfonyl)amino]-propanamide] | 440 nM
C=CCNC1=NN=C(c2ccc(Cl)cc2)CS1 [Example 31, N-Allyl-5-(4-chlorophenyl)-6H-1,3,4-thiadiazin-2-amine hydrobromide] | 51900 nM
CC(C)(C)c1ccc(S(=O)(=O)NCC(=O)NC2=NN=C(c3ccc(Cl)cc3Cl)CS2)cc1 [Example 18, 2-{[(4-tert-Butylphenyl)sulfonyl]amino}-N-[5-(2,4-dichlorophenyl)-6H-1,3,4-thiadiazin-2-yl]acetamide] | 492 nM
C[C@@H](NS(=O)(=O)c1ccccc1)C(=O)NC1=NN=C(c2ccc(C#N)cc2)CS1 [Example 1, (2R)-N-[5-(4-Cyanophenyl)-6H-1,3,4-thiadiazine-2-yl]-2-[(phenylsulfonyl)amino]-propanamide] | 468 nM
C[C@H](NS(=O)(=O)c1ccccc1)C(=O)NC1=NN=C(c2ccc(Br)cc2)CS1 [Example 6, (2S)-N-[5-(4-Bromophenyl)-6H-1,3,4-thiadiazin-2-yl]-2-[(phenylsulfonyl)amino]-propanamide] | 231 nM
COc1ccc(S(=O)(=O)NCC(=O)NC2=NN=C(c3c(F)c(F)c(F)c(F)c3F)CS2)cc1 [Example 16, 2-{[(4-Methoxyphenyl)sulfonyl]amino}-N-[5-(2,3,4,5,6-pentafluorophenyl)-6H-1,3,4-thiadiazin-2-yl]acetamide] | 527 nM

Second part, the compound after the results:

IC50 | SMILES
337 nM | C[C@H](NS(=O)(=O)c1ccccc1)C(=O)NC1=NN=C(c2ccc([N+](=O)[O-])cc2)CS1 [Example 9, (2S)-N-[5-(4-Nitrophenyl)-6H-1,3,4-thiadiazin-2-yl]-2-[(phenylsulfonyl)amino]-propanamide]
599 nM | COc1ccc(S(=O)(=O)N[C@@H](C)C(=O)NC2=NN=C(c3ccc(C)cc3)CS2)cc1 [Example 17, (2S)-2-{[(4-Methoxyphenyl)sulfonyl]amino}-N-[5-(4-methylphenyl)-6H-1,3,4-thiadiazin-2-yl]propanamide]
1170 nM | O=C(CC1NC(=O)NC1=O)NC1=NN=C(c2ccc(N3CCCC3)cc2)CS1 (stereo not drawn) [Example 26, 2-(2,5-Dioxo-4-imidazolidinyl)-N-{5-[4-(1-pyrrolidinyl)phenyl]-6H-1,3,4-thiadiazin-2-yl}acetamide]
8630 nM | CC(C)[C@@H](NS(=O)(=O)c1ccccc1)C(=O)NC1=NN=C(c2ccc(Cl)cc2)CS1 [Example 2, (2R)-N-[5-(4-Chlorophenyl)-6H-1,3,4-thiadiazin-2-yl]-3-methyl-2-[(phenylsulfonyl)amino]butanamide]
648 nM | O=C(CC1NC(=O)NC1=O)NC1=NN=C(c2ccc(Cl)cc2)CS1 (stereo not drawn) [Example 23, N-[5-(4-Chlorophenyl)-6H-1,3,4-thiadiazin-2-yl]-2-(2,5-dioxo-4-imidazolidinyl)-acetamide]
306 nM | COc1ccc(S(=O)(=O)NCC(=O)NC2=NN=C(c3ccc(Cl)cc3Cl)CS2)cc1 [Example 19, N-[5-(2,4-Dichlorophenyl)-6H-1,3,4-thiadiazin-2-yl]-2-{[(4-methoxyphenyl)-sulfonyl]amino}acetamide]
